According to patent US20210221866A1, “PROTEASE-RESISTANT LIPIDATED GLP-1 ANALOGS” (MEDIMMUNE LIMITED, priority 2015, published 2021):
Read-outs that look alike come from different tables or passages of the source. Numbered stars: 1 amine (or outer) side, 2 acyl side, 3 side chain; on linkers, the order of the positions; unused ones are H or OH. Square brackets hold non-standard residues; d marks the D form. Side chains are listed from the residue outwards. Peptide text beside a SMILES is read from it. * marks the point of attachment. C18 diacid = O=C(O)CCCCCCCCCCCCCCCCC(=O)*; γGlu = O=C(O)[C@H](CCC(=O)[*:2])N[*:1]; Palmitoyl = CCCCCCCCCCCCCCCC(=O)*; αMeF = C[C@](N)(Cc1ccccc1)C(=O)O; αMeK = C[C@](N)(CCCCN)C(=O)O; Lauroyl = CCCCCCCCCCCC(=O)*; αMeS = C[C@](N)(CO)C(=O)O; AEEA = NCCOCCOCC(=O)O; Aib = CC(C)(N)C(=O)O

Target: T1, human GLP-1 receptor (GLP-1R) (Homo sapiens, UniProt P43220)
T1 construct: expressed in transfected cells; host or cells: HEK293 cells or CHO cells
Test: cAMP assay, human GLP-1R cells
Format: cell-based
Method: Sample dilutions are made in duplicate.
A frozen cryo-vial of cells expressing the receptor of interest is thawed rapidly in a water-bath, transferred to pre-warmed assay buffer and spun at 240×g for 5 minutes. Cells are re-suspended in assay buffer at a batch-dependent optimized concentration (e.g. hGCGR cells at 2×10^5 cells/ml, hGLP-1R and hGIPR cells at 1×10^5 cells/ml).
To this, 5 μL cell suspension is added and the plates incubated at room temperature for 30 minutes.
cAMP levels are measured using a commercially available cAMP dynamic 2 HTRF kit (Cisbio, Cat #62AM4PEJ), following the two step protocol as per manufacturer's recommendations. In brief; anti-cAMP cryptate (donor fluorophore) and cAMP-d2 (acceptor fluorophore) are made up separately by diluting each 1/20 in conjugate & lysis buffer provided in the kit. 5 μL anti-cAMP cryptate is added to wells of the assay plate, and 5 μL cAMP-d2 is added to wells except non-specific binding (NSB) wells, to which conjugate and lysis buffer are added. […] EC50 values of the synthetic peptides determined in cAMP assays are then determined.
Data is transformed to % Delta F as described in the manufacturer's guidelines and analyzed by 4-parameter logistic fit to determine EC50 values. […] To compare the balance of activities at the GLP-1R and GCGR between different peptides and across different conditions, these can be correlated, where the EC50's are related to those of comparator peptides.

[1] = cAMP activity, mean of n1 and n2, read-out: Mean pM GLP-1R
[2] = cAMP activity, second determination (n2), read-out: Primary assay EC50 GLP-1R n2

T1 sequence (P43220 24-463): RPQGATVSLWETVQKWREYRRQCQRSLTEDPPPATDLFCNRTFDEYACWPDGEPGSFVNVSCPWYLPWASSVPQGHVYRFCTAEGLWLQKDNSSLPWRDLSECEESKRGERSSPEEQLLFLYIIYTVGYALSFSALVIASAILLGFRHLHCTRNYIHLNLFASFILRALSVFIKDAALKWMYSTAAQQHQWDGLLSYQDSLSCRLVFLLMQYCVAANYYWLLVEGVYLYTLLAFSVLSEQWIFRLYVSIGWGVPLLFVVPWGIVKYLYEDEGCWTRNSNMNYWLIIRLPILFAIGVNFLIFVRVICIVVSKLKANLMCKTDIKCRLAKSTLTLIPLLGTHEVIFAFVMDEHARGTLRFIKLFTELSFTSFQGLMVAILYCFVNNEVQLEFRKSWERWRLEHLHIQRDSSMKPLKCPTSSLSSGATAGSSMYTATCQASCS

Row | EC50 (Table 11, tris-lipidated peptides, mean of n1 and n2, read-out: Primary assay EC50 Mean pM GLP-1R) | EC50 [1] | EC50 [2] | SMILES
1 | 143 pM | – | – | CCCCCCCCCCCC(=O)N[C@@H](CCC(=O)NCCOCCOCC(=O)NCCOCCOCC(=O)NCCCC[C@H](NC(=O)[C@H](CCC(=O)O)NC(=O)CNC(=O)[C@H](CCC(=O)O)NC(=O)[C@H](CC(C)C)NC(=O)[C@H](CCCCNC(=O)COCCOCCNC(=O)COCCOCCNC(=O)CC[C@H](NC(=O)CCCCCCCCCCC)C(=O)O)NC(=O)[C@H](CO)NC(=O)[C@](C)(CO)NC(=O)[C@@H](NC(=O)[C@H](CC(=O)O)NC(=O)[C@H](CO)NC(=O)[C@@H](NC(=O)[C@](C)(Cc1ccccc1)NC(=O)[C@H](CO)NC(=O)CNC(=O)[C@H](CCC(=O)O)NC(=O)C(C)(C)NC(=O)[C@@H](N)Cc1c[nH]cn1)[C@@H](C)O)C(C)C)C(=O)N[C@@H](C)C(=O)N[C@@](C)(CCCCN)C(=O)N[C@@H](CCC(=O)O)C(=O)N[C@@H](Cc1ccccc1)C(=O)N[C@H](C(=O)N[C@@H](C)C(=O)N[C@@H](Cc1ccccc1)C(=O)N[C@@H](CCCCNC(=O)COCCOCCNC(=O)COCCOCCNC(=O)CC[C@H](NC(=O)CCCCCCCCCCC)C(=O)O)C(=O)N[C@H](C(=O)N[C@@H](CCC(=O)O)C(=O)NCC(=O)NCC(N)=O)C(C)C)[C@@H](C)CC)C(=O)O [compound 481] (H-H[Aib]EGS[αMeF]TSDV[αMeS]SK([AEEA-AEEA-γGlu-Lauroyl])LEGEK([AEEA-AEEA-γGlu-Lauroyl])A[αMeK]EFIAFK([AEEA-AEEA-γGlu-Lauroyl])VEGG-NH2)
2 | – | 54 pM | 55 pM | CC[C@H](C)[C@H](NC(=O)[C@](C)(Cc1ccccc1)NC(=O)[C@H](CCC(=O)O)NC(=O)[C@H](CCCCNC(=O)COCCOCCNC(=O)COCCOCCNC(=O)CCCCCCCCCCCCCCCCC(=O)O)NC(=O)[C@H](C)NC(=O)[C@H](C)NC(=O)[C@H](CCC(=O)O)NC(=O)CNC(=O)[C@H](CCC(=O)O)NC(=O)[C@H](CC(C)C)NC(=O)[C@](C)(Cc1ccccc1)NC(=O)[C@H](CO)NC(=O)[C@](C)(CO)NC(=O)[C@@H](NC(=O)[C@H](CC(=O)O)NC(=O)[C@H](CO)NC(=O)[C@@H](NC(=O)[C@](C)(Cc1ccccc1)NC(=O)[C@H](CO)NC(=O)CNC(=O)[C@H](CCC(=O)O)NC(=O)C(C)(C)NC(=O)[C@@H](N)Cc1c[nH]cn1)[C@@H](C)O)C(C)C)C(=O)N[C@@H](C)C(=O)N[C@@](C)(Cc1ccccc1)C(=O)N[C@H](C(=O)N[C@H](C(=O)N[C@@](C)(CCCCN)C(=O)NCC(=O)NCC(N)=O)C(C)C)C(C)C [compound 162]
3 | – | 15 pM | – | CC[C@H](C)[C@H](NC(=O)[C@](C)(Cc1ccccc1)NC(=O)[C@H](CCC(=O)O)NC(=O)[C@](C)(CCCCN)NC(=O)[C@H](C)NC(=O)[C@H](C)NC(=O)[C@H](CCC(=O)O)NC(=O)CNC(=O)[C@H](CCC(=O)O)NC(=O)[C@H](CC(C)C)NC(=O)[C@](C)(Cc1ccccc1)NC(=O)[C@H](CO)NC(=O)[C@](C)(CO)NC(=O)[C@@H](NC(=O)[C@H](CC(=O)O)NC(=O)[C@H](CO)NC(=O)[C@@H](NC(=O)[C@](C)(Cc1ccccc1)NC(=O)[C@H](CO)NC(=O)CNC(=O)[C@H](CCC(=O)O)NC(=O)C(C)(C)NC(=O)[C@@H](N)Cc1c[nH]cn1)[C@@H](C)O)C(C)C)C(=O)N[C@@H](C)C(=O)N[C@@](C)(Cc1ccccc1)C(=O)N[C@H](C(=O)N[C@H](C(=O)N[C@@](C)(CCCCN)C(=O)N[C@@H](CCCCNC(=O)COCCOCCNC(=O)COCCOCCNC(=O)CC[C@H](NC(=O)CCCCCCCCCCCCCCCCC(=O)O)C(=O)O)C(=O)NCC(N)=O)C(C)C)C(C)C [compound 100] (H-H[Aib]EGS[αMeF]TSDV[αMeS]S[αMeF]LEGEAA[αMeK]E[αMeF]IA[αMeF]VV[αMeK]K([AEEA-AEEA-γGlu-C18 diacid])G-NH2; N-terminus assumed)
4 | – | 17 pM | – | CC[C@H](C)[C@H](NC(=O)[C@](C)(Cc1ccccc1)NC(=O)[C@H](CCC(=O)O)NC(=O)[C@](C)(CCCCN)NC(=O)[C@H](C)NC(=O)[C@H](CCCCNC(=O)COCCOCCNC(=O)COCCOCCNC(=O)CC[C@H](NC(=O)CCCCCCCCCCCCCCCCC(=O)O)C(=O)O)NC(=O)[C@H](CCC(=O)O)NC(=O)CNC(=O)[C@H](CCC(=O)O)NC(=O)[C@H](CC(C)C)NC(=O)[C@](C)(Cc1ccccc1)NC(=O)[C@H](CO)NC(=O)[C@](C)(CO)NC(=O)[C@@H](NC(=O)[C@H](CC(=O)O)NC(=O)[C@H](CO)NC(=O)[C@@H](NC(=O)[C@](C)(Cc1ccccc1)NC(=O)[C@H](CO)NC(=O)CNC(=O)[C@H](CCC(=O)O)NC(=O)C(C)(C)NC(=O)[C@@H](N)Cc1c[nH]cn1)[C@@H](C)O)C(C)C)C(=O)N[C@@H](C)C(=O)N[C@@](C)(Cc1ccccc1)C(=O)N[C@H](C(=O)N[C@H](C(=O)N[C@@](C)(CCCCN)C(=O)NCC(=O)NCC(N)=O)C(C)C)C(C)C [compound 111] (H-H[Aib]EGS[αMeF]TSDV[αMeS]S[αMeF]LEGEK([AEEA-AEEA-γGlu-C18 diacid])A[αMeK]E[αMeF]IA[αMeF]VV[αMeK]GG-NH2; N-terminus assumed)
5 | – | 18 pM | 17.4 pM | CC[C@H](C)[C@H](NC(=O)[C@](C)(Cc1ccccc1)NC(=O)[C@H](CCC(=O)O)NC(=O)[C@](C)(CCCCN)NC(=O)[C@H](C)NC(=O)[C@H](C)NC(=O)[C@H](CCC(=O)O)NC(=O)[C@H](CCCCNC(=O)COCCOCCNC(=O)COCCOCCNC(=O)CC[C@H](NC(=O)CCCCCCCCCCCCCCCCC(=O)O)C(=O)O)NC(=O)[C@H](CCC(=O)O)NC(=O)[C@H](CC(C)C)NC(=O)[C@](C)(Cc1ccccc1)NC(=O)[C@H](CO)NC(=O)[C@](C)(CO)NC(=O)[C@@H](NC(=O)[C@H](CC(=O)O)NC(=O)[C@H](CO)NC(=O)[C@@H](NC(=O)[C@](C)(Cc1ccccc1)NC(=O)[C@H](CO)NC(=O)CNC(=O)[C@H](CCC(=O)O)NC(=O)C(C)(C)NC(=O)[C@@H](N)Cc1c[nH]cn1)[C@@H](C)O)C(C)C)C(=O)N[C@@H](C)C(=O)N[C@@](C)(Cc1ccccc1)C(=O)N[C@H](C(=O)N[C@H](C(=O)N[C@@](C)(CCCCN)C(=O)NCC(=O)NCC(N)=O)C(C)C)C(C)C [compound 113] (H-H[Aib]EGS[αMeF]TSDV[αMeS]S[αMeF]LEK([AEEA-AEEA-γGlu-C18 diacid])EAA[αMeK]E[αMeF]IA[αMeF]VV[αMeK]GG-NH2; N-terminus assumed)
6 | – | 2.1 pM | – | CCCCCCCCCCCCCCCC(=O)N[C@@H](CCC(=O)NCCCC[C@H](NC(=O)[C@](C)(Cc1ccccc1)NC(=O)[C@H](C)NC(=O)[C@@H](NC(=O)[C@](C)(Cc1ccccc1)NC(=O)[C@H](CCC(=O)O)NC(=O)[C@](C)(CCCCN)NC(=O)[C@H](C)NC(=O)[C@H](C)NC(=O)[C@H](CCC(=O)O)NC(=O)CNC(=O)[C@H](CCC(=O)O)NC(=O)[C@H](CC(C)C)NC(=O)[C@](C)(Cc1ccccc1)NC(=O)[C@H](CO)NC(=O)[C@](C)(CO)NC(=O)[C@@H](NC(=O)[C@H](CC(=O)O)NC(=O)[C@H](CO)NC(=O)[C@@H](NC(=O)[C@](C)(Cc1ccccc1)NC(=O)[C@H](CO)NC(=O)CNC(=O)[C@H](CCC(=O)O)NC(=O)C(C)(C)NC(=O)[C@@H](N)Cc1c[nH]cn1)[C@@H](C)O)C(C)C)[C@@H](C)CC)C(=O)N[C@H](C(=O)N[C@@](C)(CCCCN)C(=O)NCC(=O)NCC(N)=O)C(C)C)C(=O)O [compound 74] (H-H[Aib]EGS[αMeF]TSDV[αMeS]S[αMeF]LEGEAA[αMeK]E[αMeF]IA[αMeF]K([γGlu-Palmitoyl])V[αMeK]GG-NH2; N-terminus assumed)
7 | – | 227 pM | – | CC[C@H](C)[C@H](NC(=O)[C@](C)(Cc1ccccc1)NC(=O)[C@H](CCC(=O)O)NC(=O)[C@H](CCCCNC(=O)CC[C@H](NC(=O)CC[C@H](NC(=O)CC[C@H](NC(=O)CCCCCCCCCCCCCCCCC(=O)O)C(=O)O)C(=O)O)C(=O)O)NC(=O)[C@H](C)NC(=O)[C@H](C)NC(=O)[C@H](CCC(=O)O)NC(=O)CNC(=O)[C@H](CCC(=O)O)NC(=O)[C@H](CC(C)C)NC(=O)[C@](C)(Cc1ccccc1)NC(=O)[C@H](CO)NC(=O)[C@](C)(CO)NC(=O)[C@@H](NC(=O)[C@H](CC(=O)O)NC(=O)[C@H](CO)NC(=O)[C@@H](NC(=O)[C@](C)(Cc1ccccc1)NC(=O)[C@H](CO)NC(=O)CNC(=O)[C@H](CCC(=O)O)NC(=O)C(C)(C)NC(=O)[C@@H](N)Cc1c[nH]cn1)[C@@H](C)O)C(C)C)C(=O)N[C@@H](C)C(=O)N[C@@](C)(Cc1ccccc1)C(=O)N[C@H](C(=O)N[C@H](C(=O)N[C@@](C)(CCCCN)C(=O)NCC(=O)NCC(N)=O)C(C)C)C(C)C [compound 157]
8 | – | 11.5 pM | – | CCCCCCCCCCCC(=O)N[C@@H](CCC(=O)N[C@@H](CCC(=O)NCCCC[C@H](NC(=O)[C@H](C)NC(=O)[C@H](C)NC(=O)[C@H](CCC(=O)O)NC(=O)CNC(=O)[C@H](CCC(=O)O)NC(=O)[C@H](CC(C)C)NC(=O)[C@](C)(Cc1ccccc1)NC(=O)[C@H](CO)NC(=O)[C@](C)(CO)NC(=O)[C@@H](NC(=O)[C@H](CC(=O)O)NC(=O)[C@H](CO)NC(=O)[C@@H](NC(=O)[C@](C)(Cc1ccccc1)NC(=O)[C@H](CO)NC(=O)CNC(=O)[C@H](CCC(=O)O)NC(=O)C(C)(C)NC(=O)[C@@H](N)Cc1c[nH]cn1)[C@@H](C)O)C(C)C)C(=O)N[C@@H](CCC(=O)O)C(=O)N[C@@](C)(Cc1ccccc1)C(=O)N[C@H](C(=O)N[C@@H](C)C(=O)N[C@@](C)(Cc1ccccc1)C(=O)N[C@H](C(=O)N[C@H](C(=O)N[C@@](C)(CCCCN)C(=O)NCC(=O)NCC(N)=O)C(C)C)C(C)C)[C@@H](C)CC)C(=O)O)C(=O)O [compound 129]
